Data taken from patent US20260138958A1, “SUBSTITUTED N-PHENYLURACILS AND SALTS THEREOF, AND USE THEREOF AS HERBICIDAL ACTIVE SUBSTANCES” (Bayer Aktiengesellschaft, priority 2022, published 2026).

Columns and labels:
Type in all cases: in vivo
[1] = system: Polygonum convolvulus (POLCO); assay: Post-emergence herbicidal action, greenhouse pot test
How it was run: (§1)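 Compounds, formulated as wettable powders or emulsion concentrates, were applied to green plant parts at 600 l/ha water with 0.5% additive at the one-leaf stage. Percent activity was estimated visually after roughly 3 weeks, 0% matching untreated controls.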

[2] = system: Amaranthus retroflexus (AMARE); assay: as above
How it was run: as §1

[3] = system: Viola tricolor (VIOTR); assay: as above
How it was run: as §1

[4] = system: Abutilon theophrasti (ABUTH); assay: as above
How it was run: as §1

[5] = system: Pharbitis purpurea (PHBPU); assay: as above
How it was run: as §1

[6] = system: Bassia scoparia (KCHSC); assay: as above
How it was run: as §1

[7] = system: Lolium rigidum (LOLRI); assay: as above
How it was run: as §1

[8] = system: Digitaria sanguinalis (DIGSA); assay: as above
How it was run: as §1

[9] = system: Echinochloa crus-galli (ECHCG); assay: as above
How it was run: as §1

[10] = system: Alopecurus myosuroides (ALOMY); assay: as above; conditions: 20 g/ha
How it was run: as §1

[11] = system: Veronica persica (VERPE); assay: as above
How it was run: as §1

[12] = system: Tripleurospermum inodorum (MATIN); assay: as above; conditions: 20 g/ha
How it was run: as §1

[13] = system: Setaria viridis (SETVI); assay: as above
How it was run: as §1

[14] = system: Glycine max (GLXMA); assay: Post-emergence crop plant compatibility, greenhouse pot test; conditions: crop plant, post-emergence, 1.25 g/ha
How it was run: (§2)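 Visual % damage scores were taken roughly 3 weeks after treatment, relative to untreated plants, where 100% means plants died and 0% means no difference. Plants received aqueous sprays (WP or EC, 0.5% additive, 600 l/ha) on green parts at the one-leaf stage, 2–3 weeks after sowing.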

[15] = system: Triticum aestivum (TRZAS); assay: as above; conditions: crop plant, post-emergence, 1.25 g/ha
How it was run: as §2

CC(OC(=O)COc1ccccc1Oc1cc(-n2c(=O)cc(C(F)(F)F)n(C)c2=O)c(F)cc1Cl)C1CCCC1 (centres unmarked) [I.7-13]
80%: Post-emergence effect at 1.25 g/ha against ABUTH in % ([4]; 1.25 g/ha) | Post-emergence effect at 20 g/ha against LOLRI in % [7] | Post-emergence effect at 1.25 g/ha against ECHCG in % ([9]; 1.25 g/ha) | Post-emergence effect at 20 g/ha against ALOMY in % [10] | Post-emergence effect at 20 g/ha against MATIN in % [12]
90%: Post-emergence effect at 1.25 g/ha against VIOTR in % ([3]; 1.25 g/ha) | Post-emergence effect at 5 g/ha against ECHCG in % ([9]; 5 g/ha)
20%: Post-emergence effect at 1.25 g/ha against GLXMA in % [14] | Post-emergence effect at 1.25 g/ha against TRZAS in % [15]
100%: Post-emergence effect at 5 g/ha against POLCO in % ([1]; 5 g/ha) | Post-emergence effect at 20 g/ha against POLCO in % ([1]; 20 g/ha) | Post-emergence effect at 1.25 g/ha against AMARE in % ([2]; 1.25 g/ha) | Post-emergence effect at 5 g/ha against AMARE in % ([2]; 5 g/ha) | Post-emergence effect at 20 g/ha against AMARE in % ([2]; 20 g/ha) | Post-emergence effect at 5 g/ha against VIOTR in % ([3]; 5 g/ha) | Post-emergence effect at 20 g/ha against VIOTR in % ([3]; 20 g/ha) | Post-emergence effect at 5 g/ha against ABUTH in % ([4]; 5 g/ha) | Post-emergence effect at 20 g/ha against ABUTH in % ([4]; 20 g/ha) | Post-emergence effect at 1.25 g/ha against PHBPU in % ([5]; 1.25 g/ha) | Post-emergence effect at 5 g/ha against PHBPU in % ([5]; 5 g/ha) | Post-emergence effect at 20 g/ha against PHBPU in % ([5]; 20 g/ha) | Post-emergence effect at 5 g/ha against KCHSC in % ([6]; 5 g/ha) | Post-emergence effect at 20 g/ha against KCHSC in % ([6]; 20 g/ha) | Post-emergence effect at 5 g/ha against DIGSA in % ([8]; 5 g/ha) | Post-emergence effect at 20 g/ha against DIGSA in % ([8]; 20 g/ha) | Post-emergence effect at 20 g/ha against ECHCG in % ([9]; 20 g/ha) | Post-emergence effect at 1.25 g/ha against VERPE in % ([11]; 1.25 g/ha) | Post-emergence effect at 5 g/ha against VERPE in % ([11]; 5 g/ha) | Post-emergence effect at 20 g/ha against VERPE in % ([11]; 20 g/ha) | Post-emergence effect at 1.25 g/ha against SETVI in % ([13]; 1.25 g/ha) | Post-emergence effect at 5 g/ha against SETVI in % ([13]; 5 g/ha) | Post-emergence effect at 20 g/ha against SETVI in % ([13]; 20 g/ha)
